Assay results: patent publication US7091018B2, “Enzyme gene and its expression product” (Otsuka Pharmaceutical Co., Ltd., priority 2000, dated 2006)

How the values were obtained:
GFAT1S = target: T1, GFAT1S (Homo sapiens, UniProt Q06210); experiment: GFAT activity assay (spectrophotometric, GDH/APAD coupled): Km values and inhibition pattern of UDP-G1cNAc, GFAT1S; type: biochemical
T1 construct: made in house; host or cells: E. coli BL21-CodonPlus(DE3)RIL, pET23b vector; ultracentrifuged lysate supernatant, not purified
T1 sequence (Q06210 1-681 isoform Q06210-2): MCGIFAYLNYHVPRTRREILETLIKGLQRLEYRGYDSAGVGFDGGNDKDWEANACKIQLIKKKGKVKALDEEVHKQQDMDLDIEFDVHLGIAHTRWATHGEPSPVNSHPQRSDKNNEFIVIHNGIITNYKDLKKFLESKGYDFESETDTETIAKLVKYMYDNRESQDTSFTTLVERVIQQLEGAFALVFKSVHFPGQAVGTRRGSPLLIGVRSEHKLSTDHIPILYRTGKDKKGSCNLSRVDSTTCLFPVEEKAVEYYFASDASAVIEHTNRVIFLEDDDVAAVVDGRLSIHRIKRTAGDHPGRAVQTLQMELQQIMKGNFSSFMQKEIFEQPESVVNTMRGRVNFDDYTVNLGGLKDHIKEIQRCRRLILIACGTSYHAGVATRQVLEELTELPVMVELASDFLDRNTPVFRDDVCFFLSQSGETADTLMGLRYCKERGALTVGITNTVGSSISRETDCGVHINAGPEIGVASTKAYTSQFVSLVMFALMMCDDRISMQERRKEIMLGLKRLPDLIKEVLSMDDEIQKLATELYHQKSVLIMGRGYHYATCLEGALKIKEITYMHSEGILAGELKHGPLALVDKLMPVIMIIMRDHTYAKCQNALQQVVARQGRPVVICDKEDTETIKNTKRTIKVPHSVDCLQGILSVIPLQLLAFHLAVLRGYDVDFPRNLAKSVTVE
Experimental: (§1) GFAT activity was determined in accordance with Marshall et al. by means of spectrophotometry using a microplate (96 wells) (Journal of Biological Chemistry, vol. 266 No. 8, 4706–4712 (1991)) in the following manner. Glutamate produced by GFAT was allowed-to react with glutamate dehydrogenase (GDH), during which a reductive reaction of coenzyme APAD into APADH proceeded simultaneously. Changes in absorbance that accompany the reduction reaction of APAD to APADH are considered to represent GFAT activity.
(§2) Briefly, an appropriately diluted solution of a lyzate of GFAT1L- or GFAT1S-introduced E. coli (50 μl) was added to a substrate solution (200 μl) containing a sodium phosphate buffer (pH=7.5; 40 mM), potassium chloride (50 mM), EDTA (1.25 mM), APAD (0.3 mM), GDH (6 U/ml), glutamine (0–6 mM), and fructose-6-phosphate (F-6-P: 0–6 mM), and the mixture was allowed to react at 37° C. for 60 minutes. The absorbance change at 365 nm associated with the reaction was measured by use of a microplate reader.
(§3) In order to study the difference in terms of enzymatic behavior between GFAT1L and GFAT1S, Km values were determined using, as substrates, glutamine and F-6-P. Km values were calculated on the basis of :S/v−S plotting and v−v/S plotting, which were made with regard to the enzyme substrate concentration (S) and activity of the enzyme (reaction rate (v)). […]

GFAT1L = target: T2, GFAT1L (Homo sapiens, UniProt Q06210); experiment: GFAT activity assay (spectrophotometric, GDH/APAD coupled): Km values and inhibition pattern of UDP-G1cNAc, GFAT1L; type: biochemical
T2 construct: made in house; host or cells: E. coli BL21-CodonPlus(DE3)RIL, pET23b vector; ultracentrifuged lysate supernatant, not purified
T2 sequence (Q06210 whole entry): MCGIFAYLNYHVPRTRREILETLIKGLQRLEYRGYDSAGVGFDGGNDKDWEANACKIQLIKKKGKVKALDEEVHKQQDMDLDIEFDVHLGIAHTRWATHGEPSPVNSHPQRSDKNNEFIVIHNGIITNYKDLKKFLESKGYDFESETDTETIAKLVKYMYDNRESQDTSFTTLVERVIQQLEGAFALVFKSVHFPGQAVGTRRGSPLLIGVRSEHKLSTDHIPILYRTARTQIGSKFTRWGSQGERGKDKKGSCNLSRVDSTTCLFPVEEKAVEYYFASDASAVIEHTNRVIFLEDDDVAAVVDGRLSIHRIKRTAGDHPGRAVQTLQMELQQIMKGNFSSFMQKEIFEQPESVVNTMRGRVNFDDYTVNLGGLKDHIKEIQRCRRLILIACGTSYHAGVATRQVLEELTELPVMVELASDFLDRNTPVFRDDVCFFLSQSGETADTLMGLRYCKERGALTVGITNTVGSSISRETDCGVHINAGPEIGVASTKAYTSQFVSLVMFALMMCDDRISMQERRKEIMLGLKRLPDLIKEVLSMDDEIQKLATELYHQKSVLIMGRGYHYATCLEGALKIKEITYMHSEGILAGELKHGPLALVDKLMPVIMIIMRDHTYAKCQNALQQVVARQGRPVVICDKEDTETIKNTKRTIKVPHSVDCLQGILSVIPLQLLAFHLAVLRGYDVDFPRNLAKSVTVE
Experimental: as §1, §2, §3

[1] = F-6-P as substrate, UDP-G1cNAc 30, 100 μM
[2] = glutamine as substrate, UDP-G1cNAc 10, 30, 100 μM

Inhibition pattern of UDP-G1cNAc against GFAT activity, F-6-P (GFAT1S; [1]): competitive inhibition
Inhibition pattern of UDP-G1cNAc against GFAT activity, Glutamine (GFAT1S; [2]): un-competitive inhibition
Inhibition pattern of UDP-G1cNAc against GFAT activity, F-6-P (GFAT1L; [1]): mixed inhibition
Inhibition pattern of UDP-G1cNAc against GFAT activity, Glutamine (GFAT1L; [2]): mixed inhibition
Structure (SMILES): CC(=O)N[C@H]1[C@@H](OP(=O)(O)OP(=O)(O)OC[C@H]2O[C@@H](n3ccc(=O)[nH]c3=O)[C@H](O)[C@@H]2O)O[C@H](CO)[C@@H](O)[C@@H]1O [UDP-G1cNAc, UDP-N-acetylglucosamine]
